Assay results taken from patent US20230212122A1, “MITOCHONDRIAL TARGETING COMPOUNDS FOR THE TREATMENT OF ASSOCIATED DISEASES” (The Regents of the University of Michigan, priority 2020, published 2023).

System: UM16 cell line
Experiment: GSEA of Bru-seq data (hallmark, KEGG, GO pathways, transcription factors)
Type: cell-based
Conditions: 4 hours
Text: Consistent with this observation, there are also massive metabolite pathways influenced including starch and sucrose metabolism, glycolysis and gluconeogenesis, purine metabolism, pyrimidine metabolism, N-glycan biosynthesis, etc.

CCOC(=O)[C@@H]1CCCN(S(=O)(=O)c2ccc(S(=O)(=O)N(CC)CC)cc2)C1 [DX2-201, ethyl (R)-1-((4-(N,N-diethylsulfamoyl)phenyl)sulfonyl)piperidine-3-carboxylate]
ES KEGG_AMINOACYL_TRNA_BIOSYNTHESIS (5 pM): −0.4260 | ES KEGG_DNA_REPLICATION (5 pM): −0.5795 | ES KEGG_NUCLEOTIDE_EXCISION_REPAIR (5 pM): −0.4603 | ES KEGG_N_GLYCAN_BIOSYNTHESIS (5 pM): −0.5360 | ES KEGG_OXIDATIVE_PHOSPHORYLATION (5 pM): −0.4451 | ES KEGG_PARKINSONS_DISEASE (5 pM): −0.4446 | ES KEGG_PROTEASOME (5 pM): −0.5628 | ES KEGG_PURINE_METABOLISM (5 pM): −0.4914 | ES KEGG_PYRIMIDINE_METABOLISM (5 pM): −0.4987 | ES KEGG_RNA_POLYMERASE (5 pM): −0.6348 | ES KEGG_SPLICEOSOME (5 pM): −0.4510 | NES KEGG_ALZHEIMERS_DISEASE (5 pM): −1.6021 | NES KEGG_AMINOACYL_TRNA_BIOSYNTHESIS (5 pM): −1.4417 | NES KEGG_DNA_REPLICATION (5 pM): −1.9358 | NES KEGG_HUNTINGTONS_DISEASE (5 pM): −1.7040 | NES KEGG_MISMATCH_REPAIR (5 pM): −1.8751 | NES KEGG_NUCLEOTIDE_EXCISION_REPAIR (5 pM): −1.5835 | NES KEGG_N_GLYCAN_BIOSYNTHESIS (5 pM): −1.8440 | NES KEGG_OXIDATIVE_PHOSPHORYLATION (5 pM): −1.7650 | NES KEGG_PARKINSONS_DISEASE (5 pM): −1.7382 | NES KEGG_PROTEASOME (5 pM): −1.9164 | NES KEGG_PURINE_METABOLISM (5 pM): −2.0380 | NES KEGG_PYRIMIDINE_METABOLISM (5 pM): −1.9279 | NES KEGG_SPLICEOSOME (5 pM): −1.8728 | ES GO_ADP_METABOLIC_PROCESS (5 μM): 0.6343 | ES GO_ATP_GENERATION_FROM_ADP (5 μM): 0.6848 | ES GO_GLUCOSE_CATABOLIC_PROCESS (5 μM): 0.7209 | ES GO_HEXOSE_CATABOLIC_PROCESS (5 μM): 0.6548 | ES GO_MONOSACCHARIDE_CATABOLIC_PROCESS (5 μM): 0.5791 | ES GO_NADH_METABOLIC_PROCESS (5 μM): 0.6704 | ES GO_NEGATIVE_REGULATION_OF_FAT_CELL_DIFFERENTIATION (5 μM): 0.6098 | ES GO_NUCLEOTIDE_PHOSPHORYLATION (5 μM): 0.5920 | ES GO_PYRUVATE_METABOLIC_PROCESS (5 μM): 0.6035 | ES GO_RESPONSE_TO_OXYGEN_LEVELS (5 μM): 0.4230 | ES GO_RIBONUCLEOSIDE_DIPHOSPHATE_METABOLIC_PROCESS (5 μM): 0.5746 | ES HALLMARK_ALLOGRAFT_REJECTION (5 μM): 0.2962 | ES HALLMARK_ANDROGEN_RESPONSE (5 μM): 0.3155 | ES HALLMARK_ANGIOGENESIS (5 μM): −0.5078 | ES HALLMARK_APOPTOSIS (5 μM): 0.3812 | ES HALLMARK_BILE_ACID_METABOLISM (5 μM): 0.3249 | ES HALLMARK_CHOLESTEROL_HOMEOSTASIS (5 μM): 0.4969 | ES HALLMARK_DNA_REPAIR (5 μM): −0.4085 | ES HALLMARK_E2F_TARGETS (5 μM): −0.3804 | ES HALLMARK_ESTROGEN_RESPONSE_LATE (5 μM): 0.3437 | ES HALLMARK_FATTY_ACID_METABOLISM (5 μM): 0.2942 | ES HALLMARK_GLYCOLYSIS (5 μM): 0.4109 | ES HALLMARK_HEDGEHOG_SIGNALING (5 μM): 0.4848 | ES HALLMARK_HEME_METABOLISM (5 μM): 0.3641 | ES HALLMARK_HYPOXIA (5 μM): 0.6294 | ES HALLMARK_IL2_STAT5_SIGNALING (5 μM): 0.3402 | ES HALLMARK_INFLAMMATORY_RESPONSE (5 μM): 0.2995 | ES HALLMARK_KRAS_SIGNALING_DN (5 μM): 0.3965 | ES HALLMARK_MITOTIC_SPINDLE (5 μM): 0.3104 | ES HALLMARK_MTORC1_SIGNALING (5 μM): 0.2680 | ES HALLMARK_MYC_TARGETS_V1 (5 μM): −0.5426 | ES HALLMARK_MYC_TARGETS_V2 (5 μM): −0.6265 | ES HALLMARK_MYOGENESIS (5 μM): 0.3657 | ES HALLMARK_OXIDATIVE_PHOSPHORYLATION (5 μM): −0.3812 | ES HALLMARK_P53_PATHWAY (5 μM): 0.3403 | ES HALLMARK_TNFA_SIGNALING_VIA_NFKB (5 μM): 0.3199 | ES HALLMARK_UNFOLDED_PROTEIN_RESPONSE (5 μM): −0.3254 | ES HALLMARK_UV_RESPONSE_DN (5 μM): 0.3784 | ES HALLMARK_XENOBIOTIC_METABOLISM (5 μM): 0.2890 | ES KEGG_DORSO_VENTRAL_AXIS_FORMATION (5 μM): 0.6614 | ES KEGG_GLYCOLYSIS_GLUCONEOGENESIS (5 μM): 0.5362 | ES KEGG_LEISHMANIA_INFECTION (5 μM): 0.5017 | ES KEGG_REGULATION_OF_AUTOPHAGY (5 μM): 0.5972 | ES KEGG_RENAL_CELL_CARCINOMA (5 μM): 0.4210 | ES KEGG_STARCH_AND_SUCROSE_METABOLISM (5 μM): 0.7356 | ES KEGG_TYPE_II_DIABETES_MELLITUS (5 μM): 0.5316 | NES GO_ADP_METABOLIC_PROCESS (5 μM): 2.1062 | NES GO_ATP_GENERATION_FROM_ADP (5 μM): 2.0929 | NES GO_GLUCOSE_CATABOLIC_PROCESS (5 μM): 2.1191 | NES GO_HEXOSE_CATABOLIC_PROCESS (5 μM): 2.1301 | NES GO_MONOSACCHARIDE_CATABOLIC_PROCESS (5 μM): 1.9771 | NES GO_NADH_METABOLIC_PROCESS (5 μM): 2.0814 | NES GO_NEGATIVE_REGULATION_OF_FAT_CELL_DIFFERENTIATION (5 μM): 1.9052 | NES GO_NUCLEOTIDE_PHOSPHORYLATION (5 μM): 2.0727 | NES GO_PYRUVATE_METABOLIC_PROCESS (5 μM): 2.1281 | NES GO_RESPONSE_TO_OXYGEN_LEVELS (5 μM): 1.9612 | NES GO_RIBONUCLEOSIDE_DIPHOSPHATE_METABOLIC_PROCESS (5 μM): 2.0919 | NES HALLMARK_ALLOGRAFT_REJECTION (5 μM): 1.2241 | NES HALLMARK_ANDROGEN_RESPONSE (5 μM): 1.3002 | NES HALLMARK_ANGIOGENESIS (5 μM): −1.4124 | NES HALLMARK_APOPTOSIS (5 μM): 1.6931 | NES HALLMARK_BILE_ACID_METABOLISM (5 μM): 1.2479 | NES HALLMARK_CHOLESTEROL_HOMEOSTASIS (5 μM): 1.9354 | NES HALLMARK_DNA_REPAIR (5 μM): −1.7322 | NES HALLMARK_E2F_TARGETS (5 μM): −1.7010 | NES HALLMARK_ESTROGEN_RESPONSE_LATE (5 μM): 1.5630 | NES HALLMARK_FATTY_ACID_METABOLISM (5 μM): 1.2729 | NES HALLMARK_GLYCOLYSIS (5 μM): 1.8782 | NES HALLMARK_HEDGEHOG_SIGNALING (5 μM): 1.3854 | NES HALLMARK_HEME_METABOLISM (5 μM): 1.6288 | NES HALLMARK_HYPOXIA (5 μM): 2.8139 | NES HALLMARK_IL2_STAT5_SIGNALING (5 μM): 1.5174 | NES HALLMARK_INFLAMMATORY_RESPONSE (5 μM): 1.2667 | NES HALLMARK_KRAS_SIGNALING_DN (5 μM): 1.4318 | NES HALLMARK_MITOTIC_SPINDLE (5 μM): 1.4709 | NES HALLMARK_MTORC1_SIGNALING (5 μM): 1.2451 | NES HALLMARK_MYC_TARGETS_V1 (5 μM): −2.4192 | NES HALLMARK_MYC_TARGETS_V2 (5 μM): −2.2565 | NES HALLMARK_MYOGENESIS (5 μM): 1.5149 | NES HALLMARK_OXIDATIVE_PHOSPHORYLATION (5 μM): −1.6882 | NES HALLMARK_P53_PATHWAY (5 μM): 1.5682 | NES HALLMARK_TNFA_SIGNALING_VIA_NFKB (5 μM): 1.4745 | NES HALLMARK_UNFOLDED_PROTEIN_RESPONSE (5 μM): −1.3390 | NES HALLMARK_UV_RESPONSE_DN (5 μM): 1.6434 | NES HALLMARK_XENOBIOTIC_METABOLISM (5 μM): 1.2573 | NES KEGG_DORSO_VENTRAL_AXIS_FORMATION (5 μM): 1.9145 | NES KEGG_GLYCOLYSIS_GLUCONEOGENESIS (5 μM): 1.8482 | NES KEGG_LEISHMANIA_INFECTION (5 μM): 1.6760 | NES KEGG_REGULATION_OF_AUTOPHAGY (5 μM): 1.7250 | NES KEGG_RENAL_CELL_CARCINOMA (5 μM): 1.6054 | NES KEGG_STARCH_AND_SUCROSE_METABOLISM (5 μM): 2.1177 | NES KEGG_TYPE_II_DIABETES_MELLITUS (5 μM): 1.6335
